Data reported in ChEMBL document CHEMBL5036339, “Synthesis and biological evaluation of indole-based peptidomimetics as antibacterial agents against Gram-positive bacteria” (Eur J Med Chem, 2021).
In brackets after ≈: the same amount, converted by molar mass. Activity calls are given as the source filed them. The rule behind the calls is not given here.

How the values were obtained:
Staphylococcus aureus [1] = experiment: In vivo antibacterial activity against Staphylococcus aureus ATCC29213 in mouse bacterial keratitis model assessed as log reduction in bacterial load in infected cornea at 0.5%,TOP after 24 hour infection; assay type: functional, organism-based
[2] = Hemolytic activity in rabbit erythrocytes assessed as concentration required to cause 50% hemolysis; assay type: ADME, cell-based, Oryctolagus cuniculus, Erythrocyte
[3] = Cytotoxicity against mouse NCTC clone 929 cells assessed as reduction in cell viability at 12.5 ug/ml after 24 hrs by CCK8 assay; assay type: cell-based; details: nctc clone 929, 24 h, at 12.5 µg/mL
Staphylococcus aureus [4] = experiment: Antibacterial activity against methicillin-resistant Staphylococcus aureus NCTC 10442 assessed as reduction in bacterial growth in presence of potassium salt; assay type: functional
[5] = Cytotoxicity against mouse NCTC clone 929 cells assessed as reduction in cell viability at 25 ug/ml after 24 hrs by CCK8 assay; assay type: cell-based; details: nctc clone 929, 24 h, at 25 µg/mL
Staphylococcus aureus [6] = experiment: Antibacterial activity against methicillin-resistant Staphylococcus aureus NCTC 10442 assessed as reduction in bacterial growth in presence of sodium salt; assay type: functional
Staphylococcus aureus [7] = experiment: Antibacterial activity against methicillin-resistant Staphylococcus aureus N315 assessed as reduction in bacterial growth in presence of zinc salt; assay type: functional
Staphylococcus aureus [8] = experiment: Antibacterial activity against methicillin-resistant Staphylococcus aureus NCTC 10442 assessed as reduction in bacterial growth in presence of magnesium salt; assay type: functional
J774.A1 [9] = experiment: Cytotoxicity against mouse J774.A1 cells assessed as reduction in cell viability at 6.25 ug/ml after 24 hrs by CCK8 assay; assay type: cell-based; details: j774.a1, 24 h, at 6.25 µg/mL
Staphylococcus aureus [10] = experiment: Antibacterial activity against methicillin-resistant Staphylococcus aureus N315 assessed as reduction in bacterial growth in presence of magnesium salt; assay type: functional
HEK293 [11] = experiment: Cytotoxicity against human HEK293 cells assessed as reduction in cell viability at 50 ug/ml after 24 hrs by CCK8 assay; assay type: cell-based; details: hek293, 24 h, at 50 µg/mL
Staphylococcus aureus [12] = experiment: Antibacterial activity against Staphylococcus aureus ATCC29213 assessed as reduction in bacterial growth in presence of ferric salt; assay type: functional
Staphylococcus aureus [13] = experiment: Bactericidal activity against Staphylococcus aureus NCTC 10442 assessed as log reduction in bacterial growth at 1X MIC measured within 24 hr by time-kill kinetic assay; assay type: functional
Staphylococcus aureus [14] = experiment: Induction of drug resistance in Staphylococcus aureus ATCC29213 assessed as reduction in bacterial growth at 0.5 times MIC measured after 24 hr; assay type: functional, organism-based
Staphylococcus aureus [15] = experiment: Antibacterial activity against methicillin-resistant Staphylococcus aureus NCTC 10442 assessed as reduction in bacterial growth in presence of ferrous salt; assay type: functional
J774.A1 [16] = experiment: Cytotoxicity against mouse J774.A1 cells assessed as reduction in cell viability at 3.125 ug/ml after 24 hrs by CCK8 assay; assay type: cell-based; details: j774.a1, 24 h, at 3.125 µg/mL
Staphylococcus aureus [17] = experiment: Antibacterial activity against methicillin-resistant Staphylococcus aureus N315 assessed as reduction in bacterial growth in presence of ferric salt; assay type: functional
[18] = Cytotoxicity against mouse NCTC clone 929 cells assessed as reduction in cell viability at 50 ug/ml after 24 hrs by CCK8 assay; assay type: cell-based; details: nctc clone 929, 24 h, at 50 µg/mL
J774.A1 [19] = experiment: Cytotoxicity against mouse J774.A1 cells assessed as reduction in cell viability at 12.5 ug/ml after 24 hrs by CCK8 assay; assay type: cell-based; details: j774.a1, 24 h, at 12.5 µg/mL
Staphylococcus aureus [20] = experiment: Antibacterial activity against Staphylococcus aureus ATCC29213 assessed as reduction in bacterial growth in presence of sodium salt; assay type: functional
Staphylococcus aureus [21] = experiment: Antibacterial activity against Staphylococcus aureus ATCC29213 assessed as reduction in bacterial growth in presence of ferrous salt; assay type: functional
Escherichia coli = experiment: Antibacterial activity against Escherichia coli ATCC25922 assessed as reduction in bacterial growth; assay type: functional
HEK293 [22] = experiment: Cytotoxicity against human HEK293 cells assessed as reduction in cell viability at 25 ug/ml after 24 hrs by CCK8 assay; assay type: cell-based; details: hek293, 24 h, at 25 µg/mL
Staphylococcus aureus [23] = experiment: Antibacterial activity against methicillin-resistant Staphylococcus aureus N315 assessed as reduction in bacterial growth in presence of sodium salt; assay type: functional
Staphylococcus aureus [24] = experiment: Bactericidal activity against Staphylococcus aureus NCTC 10442 assessed as log reduction in bacterial growth at 8X MIC measured within 0.5 hr by time-kill kinetic assay; assay type: functional
Staphylococcus aureus [25] = experiment: Antibacterial activity against methicillin-resistant Staphylococcus aureus NCTC 10442 assessed as reduction in bacterial growth in presence of zinc salt; assay type: functional
[26] = Cytotoxicity against mouse NCTC clone 929 cells assessed as reduction in cell viability at 3.125 ug/ml after 24 hrs by CCK8 assay; assay type: cell-based; details: nctc clone 929, 24 h, at 3.125 µg/mL
HEK293 [27] = experiment: Cytotoxicity against human HEK293 cells assessed as reduction in cell viability at 12.5 ug/ml after 24 hrs by CCK8 assay; assay type: cell-based; details: hek293, 24 h, at 12.5 µg/mL
HEK293 [28] = experiment: Cytotoxicity against human HEK293 cells assessed as reduction in cell viability at 3.125 ug/ml after 24 hrs by CCK8 assay; assay type: cell-based; details: hek293, 24 h, at 3.125 µg/mL
Staphylococcus aureus [29] = experiment: Bactericidal activity against Staphylococcus aureus NCTC 10442 assessed as log reduction in bacterial growth at 2X MIC measured within 24 hr by time-kill kinetic assay; assay type: functional
Staphylococcus aureus [30] = experiment: Antibacterial activity against Staphylococcus aureus ATCC29213 assessed as reduction in bacterial growth; assay type: functional
Staphylococcus aureus [31] = experiment: Antibacterial activity against methicillin-resistant Staphylococcus aureus N315 assessed as reduction in bacterial growth in presence of ferrous salt; assay type: functional
J774.A1 [32] = experiment: Cytotoxicity against mouse J774.A1 cells assessed as reduction in cell viability at 25 ug/ml after 24 hrs by CCK8 assay; assay type: cell-based; details: j774.a1, 24 h, at 25 µg/mL
Staphylococcus aureus [33] = experiment: Antibacterial activity against methicillin-resistant Staphylococcus aureus N315 assessed as reduction in bacterial growth in presence of calcium salt; assay type: functional
Staphylococcus aureus [34] = experiment: Antibacterial activity against methicillin-resistant Staphylococcus aureus N315 assessed as reduction in bacterial growth in presence of potassium salt; assay type: functional
Staphylococcus aureus [35] = experiment: Antibacterial activity against methicillin-resistant Staphylococcus aureus NCTC 10442 assessed as reduction in bacterial growth in presence of ferric salt; assay type: functional
Staphylococcus aureus [36] = experiment: Antibacterial activity against methicillin-resistant Staphylococcus aureus N315 assessed as reduction in bacterial growth; assay type: functional
Staphylococcus aureus [37] = experiment: Bactericidal activity against Staphylococcus aureus NCTC 10442 assessed as log reduction in bacterial growth at 4X MIC measured within 0.5 hr by time-kill kinetic assay; assay type: functional; details: time hrs <=0.5
Staphylococcus aureus [38] = experiment: Antibacterial activity against Staphylococcus aureus ATCC29213 assessed as reduction in bacterial growth in presence of magnesium salt; assay type: functional
Cell membrane = experiment: Induction of membrane disruption in […] assessed as increase in red fluorescence at 12.48 ug/ml by SYTO 9/PI staining based flourescence microscopy method; assay type: functional; details: dose 12.48 µg/ml
Staphylococcus aureus [39] = experiment: Antibacterial activity against Staphylococcus aureus ATCC29213 assessed as reduction in bacterial growth in presence of zinc salt; assay type: functional
J774.A1 [40] = experiment: Cytotoxicity against mouse J774.A1 cells assessed as reduction in cell viability at 50 ug/ml after 24 hrs by CCK8 assay; assay type: cell-based; details: j774.a1, 24 h, at 50 µg/mL
Staphylococcus aureus [41] = experiment: Antibacterial activity against methicillin-resistant Staphylococcus aureus NCTC 10442 assessed as reduction in bacterial growth; assay type: functional
Staphylococcus aureus [42] = experiment: Antibacterial activity against methicillin-resistant Staphylococcus aureus NCTC 10442 assessed as reduction in bacterial growth in presence of calcium salt; assay type: functional
Staphylococcus aureus [43] = experiment: Antibacterial activity against Staphylococcus aureus ATCC29213 assessed as reduction in bacterial growth in presence of calcium salt; assay type: functional
Staphylococcus aureus [44] = experiment: Antibacterial activity against Staphylococcus aureus ATCC29213 assessed as reduction in bacterial growth in presence of potassium salt; assay type: functional
[45] = Cytotoxicity against mouse NCTC clone 929 cells assessed as reduction in cell viability at 6.25 ug/ml after 24 hrs by CCK8 assay; assay type: cell-based; details: nctc clone 929, 24 h, at 6.25 µg/mL
HEK293 [46] = experiment: Cytotoxicity against human HEK293 cells assessed as reduction in cell viability at 6.25 ug/ml after 24 hrs by CCK8 assay; assay type: cell-based; details: hek293, 24 h, at 6.25 µg/mL

**Q.** For CC(C)=CCC/C(C)=C/Cn1cc(CC(=O)NCCN(CCNC(=N)N)CCNC(=N)N)c2ccccc21, which Activity (Staphylococcus aureus [1]) is on record?
**A.** Active

**Q.** And the HC50 [2]?
**A.** 226 µg/mL

**Q.** And the Activity [3]?
**A.** 72.66%

**Q.** What about the MIC (Staphylococcus aureus [4]) of the same compound?
**A.** 1.56 µg/mL

**Q.** And the Activity [5]?
**A.** 71.16%

**Q.** And the MIC (Staphylococcus aureus [6])?
**A.** 1.56 µg/mL

**Q.** What about the MIC (Staphylococcus aureus [7]) of the same compound?
**A.** 1.56 µg/mL

**Q.** And the MIC (Staphylococcus aureus [8])?
**A.** 1.56 µg/mL

**Q.** And the Activity (J774.A1 [9])?
**A.** 95.8%

**Q.** And the MIC (Staphylococcus aureus [10])?
**A.** 1.56 µg/mL

**Q.** What about the Activity (HEK293 [11]) of the same compound?
**A.** 68.26%

**Q.** What about the MIC (Staphylococcus aureus [12]) of the same compound?
**A.** 1.56 µg/mL

**Q.** And the Activity (Staphylococcus aureus [13])?
**A.** 3 CFU

**Q.** What about the Activity (Staphylococcus aureus [14]) of the same compound?
**A.** inactive

**Q.** And the MIC (Staphylococcus aureus [15])?
**A.** 1.56 µg/mL

**Q.** What about the Activity (J774.A1 [16]) of the same compound?
**A.** 100.34%

**Q.** What about the MIC (Staphylococcus aureus [17]) of the same compound?
**A.** 1.56 µg/mL

**Q.** What about the Activity [18] of the same compound?
**A.** 64.79%

**Q.** And the Activity (J774.A1 [19])?
**A.** 85.85%

**Q.** What about the MIC (Staphylococcus aureus [20]) of the same compound?
**A.** 1.56 µg/mL

**Q.** What about the MIC (Staphylococcus aureus [21]) of the same compound?
**A.** 1.56 µg/mL

**Q.** And the MIC (Escherichia coli)?
**A.** 12.5 µg/mL (≈ 23.9 µM)

**Q.** What about the Activity (HEK293 [22]) of the same compound?
**A.** 76.79%

**Q.** And the MIC (Staphylococcus aureus [23])?
**A.** 1.56 µg/mL

**Q.** What about the Activity (Staphylococcus aureus [24]) of the same compound?
**A.** 3 CFU

**Q.** What about the MIC (Staphylococcus aureus [25]) of the same compound?
**A.** 1.56 µg/mL

**Q.** What about the Activity [26] of the same compound?
**A.** 87.85%

**Q.** What about the Activity (HEK293 [27]) of the same compound?
**A.** 84.69%

**Q.** And the Activity (HEK293 [28])?
**A.** 94.48%

**Q.** What about the Activity (Staphylococcus aureus [29]) of the same compound?
**A.** 3 CFU

**Q.** And the MIC (Staphylococcus aureus [30])?
**A.** 1.56 µg/mL (≈ 2.98 µM)

**Q.** What about the MIC (Staphylococcus aureus [31]) of the same compound?
**A.** 1.56 µg/mL

**Q.** What about the Activity (J774.A1 [32]) of the same compound?
**A.** 77.46%

**Q.** And the MIC (Staphylococcus aureus [33])?
**A.** 1.56 µg/mL

**Q.** What about the MIC (Staphylococcus aureus [34]) of the same compound?
**A.** 1.56 µg/mL

**Q.** What about the MIC (Staphylococcus aureus [35]) of the same compound?
**A.** 1.56 µg/mL

**Q.** And the MIC (Staphylococcus aureus [36])?
**A.** 1.56 µg/mL (≈ 2.98 µM)

**Q.** What about the log reduction (Staphylococcus aureus [37]) of the same compound?
**A.** 3 log10 CFU/mL

**Q.** And the MIC (Staphylococcus aureus [38])?
**A.** 1.56 µg/mL

**Q.** And the Activity (Cell membrane)?
**A.** Active

**Q.** And the MIC (Staphylococcus aureus [39])?
**A.** 1.56 µg/mL

**Q.** And the Activity (J774.A1 [40])?
**A.** 56%

**Q.** And the MIC (Staphylococcus aureus [41])?
**A.** 1.56 µg/mL (≈ 2.98 µM)

**Q.** And the MIC (Staphylococcus aureus [42])?
**A.** 1.56 µg/mL

**Q.** And the MIC (Staphylococcus aureus [43])?
**A.** 1.56 µg/mL

**Q.** What about the MIC (Staphylococcus aureus [44]) of the same compound?
**A.** 1.56 µg/mL

**Q.** And the Activity [45]?
**A.** 79.43%

**Q.** And the Activity (HEK293 [46])?
**A.** 92.66%
